Source: patent publication US6537991B1, “Method of treating a peripheral neuropathic pain” (AstraZeneca AB, priority 1999, dated 2003)
Like-named read-outs stand apart in the source and are kept apart here.

Tests used:
[1] = tested on: chronic constrictive injury (CCI) model (loosely ligated common sciatic nerve); assay: chronic constrictive injury (CCI) model of peripheral mononeuropathy; assay type: in vivo, rat; details: oral test doses of 0.3, 3 and 30 mg/kg/day (dosed four times a day)
Source text: The development of a rodent model of peripheral mononeuropathy (Pain, 33, 1988, 87-107; Exp Brain Res, 113, 1997, 200-206; and Exp Brain Res, 120, 1998, 432-438) has provided a new approach for studies of post-injury neuropathic pain. The model produces neuropathic pain syndromes in the rat by loosely ligating the common sciatic nerve and has been described as a chronic constrictive injury (CCI) model. The behavioural, morphological and autoradiographic data obtained from the rodents in this model closely represent the clinical features of post-injury neuropathic pain. […] This model has value therefore in predicting efficacy of compounds against neuropathic pain.
The identification of compounds which are useful in the treatment or prevention of neuropathic pain is the subject of the present invention. These properties may be assessed, for example, using the CCI model as described in Pain, 33, 1988, 87-107.

[2] = tested on: chronic constrictive injury (CCI) model (loosely ligated common sciatic nerve); details: cited from earlier work

CCN(Cc1cc(Cl)ccc1OCC(C)C)c1ccc(C(=O)NS(=O)(=O)c2c(C)noc2C)nn1 [d), N-(3,5-dimethylisoxazol-4-ylsulphonyl)-6-[N-(5-chloro-2-(2-methylpropoxy)benzyl)-N-ethylamino]pyridazine-3-carboxamide]
activity in the CCI model [1]: demonstrates activity

NCC1(CC(=O)O)CCCCC1 [gabapentin]
activity in the CCI model ([2]; Eur J Pharmacol, 324, 1997, 157-160): demonstrates activity

O=C(c1ccccc1)c1ccc2n1CCC2C(=O)O (stereo not drawn) [ketorolac tromethamine]
activity compared to morphine ([2]; dosed intrathecally, Can J Anaesth, 1996, 43, 967): modest activity
